Test results reported in patent publication US20160235727A1, “NOVEL PYRROLIDINE DERIVED BETA 3 ADRENERGIC RECEPTOR AGONISTS” (Merck Sharp & Dohme Corp., priority 2013, published 2016).
pEC50: −log10 of the molar value.

Molecular target: T1, human β3-AR (Homo sapiens, UniProt P13945)
T1 construct: expressed in transfected cells; host or cells: CHO (Chinese hamster ovary) cells, stably transfected
Assay: cAMP functional agonist assay (LANCE TR-FRET) in CHO cells expressing cloned human β3-AR
Type: cell-based
Conditions: for pEC50: CHO cells stably expressing cloned human β3-adrenoceptor, cAMP release, read-out: Human β3-AR Agonism EC50; for Human β3-AR Agonist Activity (%): percent maximum activation relative to isoproterenol; for Fold drop in potency vs. 2-chloropyridine analog: EC50 of comparative example divided by EC50 of corresponding 2-chloropyridine compound

T1 sequence (P13945 whole entry): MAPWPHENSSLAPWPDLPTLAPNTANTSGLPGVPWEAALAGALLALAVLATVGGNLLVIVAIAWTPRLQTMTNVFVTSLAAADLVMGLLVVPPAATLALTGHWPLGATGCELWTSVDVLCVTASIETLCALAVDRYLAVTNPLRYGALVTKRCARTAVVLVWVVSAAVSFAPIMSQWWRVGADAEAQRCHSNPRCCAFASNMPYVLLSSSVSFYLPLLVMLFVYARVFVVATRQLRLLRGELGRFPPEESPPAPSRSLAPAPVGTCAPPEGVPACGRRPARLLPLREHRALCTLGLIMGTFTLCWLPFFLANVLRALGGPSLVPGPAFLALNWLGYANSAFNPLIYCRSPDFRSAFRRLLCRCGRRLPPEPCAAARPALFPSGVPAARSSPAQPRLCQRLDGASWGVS

Compound	pEC50	Human β3-AR Agonist Activity (%)	Fold drop in potency vs. 2-chloropyridine analog [fold]
COC(C)CN(C)C(=O)c1ccc(C[C@@H]2CC[C@H]([C@H](O)c3ccc(Cl)nc3)N2)cc1 (stereo partly drawn) [Example 2-A, 4-(((2S,5R)-5-((R)-(6-chloropyridin-3-yl)(hydroxy)methyl)pyrrolidin-2-yl)methyl)-N-(2-methoxypropyl)-N-methylbenzamide]	6.93	86	–
CN(Cc1cccnc1)C(=O)c1ccc(C[C@@H]2CC[C@H]([C@H](O)c3cccnc3)N2)cc1 [Example 21-H, 4-(((2S,5R)-5-((R)-hydroxy(pyridin-3-yl)methyl)pyrrolidin-2-yl)methyl)-N-methyl-N-(pyridin-3-ylmethyl)benzamide]	7.42	85	8.8
CN(Cc1cccnc1)C(=O)c1ccc(C[C@@H]2CC[C@H]([C@H](O)c3ccc(C(N)=O)nc3)N2)cc1 [Example 21-K, 5-((R)-hydroxy((2R,5S)-5-(4-(methyl(pyridin-3-ylmethyl)carbamoyl)benzyl)pyrrolidin-2-yl)methyl)picolinamide]	6.95	87	26.3
COC(CN(C)C(=O)c1ccc(C[C@@H]2CC[C@H]([C@H](O)c3ccccc3)N2)cc1)c1cccc(=O)[nH]1 (stereo partly drawn) [Example 3-B, 4-(((2S,5R)-5-((R)-hydroxy(phenyl)methyl)pyrrolidin-2-yl)methyl)-N-(2-methoxy-2-(6-oxo-1,6-dihydropyridin-2-yl)ethyl)-N-methylbenzamide]	6.39	101	2.0
CN(Cc1ccc(=O)[nH]c1)C(=O)c1ccc(C[C@@H]2CC[C@H]([C@H](O)c3cccc(F)c3)N2)cc1 [Example 28-C, 4-(((2S,5R)-5-((R)-(3-fluorophenyl)(hydroxy)methyl)pyrrolidin-2-yl)methyl)-N-methyl-N-((6-oxo-1,6-dihydropyridin-3-yl)methyl)benzamide]	6.09	78	4.7
CC(C)c1cc(CN(C)C(=O)c2ccc(C[C@@H]3CC[C@H]([C@H](O)c4ccccc4)N3)cc2)n[nH]1 [Example 7-B, 4-(((2S,5R)-5-((R)-hydroxy(phenyl)methyl)pyrrolidin-2-yl)methyl)-N-((5-isopropyl-1H-pyrazol-3-yl)methyl)-N-methylbenzamide]	6.73	110	3.2
CN(Cc1cc(C(F)(F)F)[nH]n1)C(=O)c1ccc(C[C@@H]2CC[C@H]([C@H](O)c3ccc(Cl)nc3)N2)cc1 [Example 10-A, 4-(((2S,5R)-5-((R)-(6-chloropyridin-3-yl)(hydroxy)methyl)pyrrolidin-2-yl)methyl)-N-methyl-N-((5-(trifluoromethyl)-1H-pyrazol-3-yl)methyl)benzamide]	8.70	96	–
Cc1[nH]nc(CN(C)C(=O)c2ccc(C[C@@H]3CC[C@H]([C@H](O)c4ccc(Cl)nc4)N3)cc2)c1O [Example 15-A, 4-(((2S,5R)-5-((R)-(6-chloropyridin-3-yl)(hydroxy)methyl)pyrrolidin-2-yl)methyl)-N-((4-hydroxy-5-methyl-1H-pyrazol-3-yl)methyl)-N-methylbenzamide]	9.00	94	–
CN(Cc1ccc(Cl)nc1)C(=O)c1ccc(C[C@@H]2CC[C@H]([C@H](O)c3ccc(Cl)nc3)N2)cc1 [Example 30-A, 4-(((2S,5R)-5-((R)-(6-chloropyridin-3-yl)(hydroxy)methyl)pyrrolidin-2-yl)methyl)-N-((6-chloropyridin-3-yl)methyl)-N-methylbenzamide]	8.52	99	–
COc1c(C)n[nH]c1CN(C)C(=O)c1ccc(C[C@@H]2CC[C@H]([C@H](O)c3ccccc3)N2)cc1 [Example 16-B, 4-(((2S,5R)-5-((R)-hydroxy(phenyl)methyl)pyrrolidin-2-yl)methyl)-N-((4-methoxy-5-methyl-1H-pyrazol-3-yl)methyl)-N-methylbenzamide]	8.00	101	6.2
CN(Cc1cccc(=O)[nH]1)C(=O)c1ccc(C[C@@H]2CC[C@H]([C@H](O)c3ccccc3)N2)cc1 [Example 20-B, 4-(((2S,5R)-5-((R)-hydroxy(phenyl)methyl)pyrrolidin-2-yl)methyl)-N-methyl-N-((6-oxo-1,6-dihydropyridin-2-yl)methyl)benzamide]	8.05	103	2.1
CN(Cc1cc(C2CC2)[nH]n1)C(=O)c1ccc(C[C@@H]2CC[C@H]([C@H](O)c3ccc(Cl)nc3)N2)cc1 [Example 8-A, 4-(((2S,5R)-5-((R)-(6-chloropyridin-3-yl)(hydroxy)methyl)pyrrolidin-2-yl)methyl)-N-((5-cyclopropyl-1H-pyrazol-3-yl)methyl)-N-methylbenzamide]	7.70	103	–
CN(Cc1cccnc1F)C(=O)c1ccc(C[C@@H]2CC[C@H]([C@H](O)c3ccc(F)cc3)N2)cc1 [Example 26-F, 4-(((2S,5R)-5-((R)-(4-fluorophenyl)(hydroxy)methyl)pyrrolidin-2-yl)methyl)-N-((2-fluoropyridin-3-yl)methyl)-N-methylbenzamide]	6.87	93	3.9
COC(CN(C)C(=O)c1ccc(C[C@@H]2CC[C@H]([C@H](O)c3ccc(Cl)nc3)N2)cc1)c1cccc(=O)[nH]1 (stereo partly drawn) [Example 3-A, 4-(((2S,5R)-5-((R)-(6-chloropyridin-3-yl)(hydroxy)methyl)pyrrolidin-2-yl)methyl)-N-(2-methoxy-2-(6-oxo-1,6-dihydropyridin-2-yl)ethyl)-N-methylbenzamide]	6.69	81	–

Continued, values first:

pEC50	Human β3-AR Agonist Activity (%)	Fold drop in potency vs. 2-chloropyridine analog [fold]	Compound
8.10	58	–	CN(Cc1cncc(F)c1)C(=O)c1ccc(C[C@@H]2CC[C@H]([C@H](O)c3ccc(Cl)nc3)N2)cc1 [Example 38-A, 4-(((2S,5R)-5-((R)-(6-chloropyridin-3-yl)(hydroxy)methyl)pyrrolidin-2-yl)methyl)-N-((5-fluoropyridin-3-yl)methyl)-N-methylbenzamide]
8.70	98	–	CC(c1cnccn1)N(C)C(=O)c1ccc(C[C@@H]2CC[C@H]([C@H](O)c3ccc(Cl)nc3)N2)cc1 (stereo partly drawn) [Example 41-A, 4-(((2S,5R)-5-((R)-(6-chloropyridin-3-yl)(hydroxy)methyl)pyrrolidin-2-yl)methyl)-N-methyl-N-(1-(pyrazin-2-yl)ethyl)benzamide]
8.15	100	0.9	CN(Cc1cncc(F)c1)C(=O)c1ccc(C[C@@H]2CC[C@H]([C@H](O)c3ccccc3)N2)cc1 [Example 38-B, N-((5-fluoropyridin-3-yl)methyl)-4-(((2S,5R)-5-((R)-hydroxy(phenyl)methyl)pyrrolidin-2-yl)methyl)-N-methylbenzamide]
7.21	102	3.6	CN(Cc1cncc(C#N)c1)C(=O)c1ccc(C[C@@H]2CC[C@H]([C@H](O)c3ccccc3)N2)cc1 [Example 35-B, N-((5-cyanopyridin-3-yl)methyl)-4-(((2S,5R)-5-((R)-hydroxy(phenyl)methyl)pyrrolidin-2-yl)methyl)-N-methylbenzamide]
7.36	101	–	CN(Cc1cncc(C(=O)O)c1)C(=O)c1ccc(C[C@@H]2CC[C@H]([C@H](O)c3ccc(Cl)nc3)N2)cc1 [Example 33-A, 5-((4-(((2S,5R)-5-((R)-(6-chloropyridin-3-yl)(hydroxy)methyl)pyrrolidin-2-yl)methyl)-N-methylbenzamido)methyl)nicotinic acid]
6.25	86	48.6	CN(Cc1cnccn1)C(=O)c1ccc(C[C@@H]2CC[C@H]([C@H](O)c3cccc(Cl)c3)N2)cc1 [Example 40-D, 4-(((2S,5R)-5-((R)-(3-chlorophenyl)(hydroxy)methyl)pyrrolidin-2-yl)methyl)-N-methyl-N-(pyrazin-2-ylmethyl)benzamide]
7.80	109	9.1	CC(c1cnccn1)N(C)C(=O)c1ccc(C[C@@H]2CC[C@H]([C@H](O)c3ccccc3)N2)cc1 (stereo partly drawn) [Example 41-B, 4-(((2S,5R)-5-((R)-hydroxy(phenyl)methyl)pyrrolidin-2-yl)methyl)-N-methyl-N-(1-(pyrazin-2-yl)ethyl)benzamide]
7.89	94	–	CN(Cc1cncc(C(C)(C)O)c1)C(=O)c1ccc(C[C@@H]2CC[C@H]([C@H](O)c3ccc(Cl)nc3)N2)cc1 [Example 32-A, 4-(((2S,5R)-5-((R)-(6-chloropyridin-3-yl)(hydroxy)methyl)pyrrolidin-2-yl)methyl)-N-((5-(2-hydroxypropan-2-yl)pyridin-3-yl)methyl)-N-methylbenzamide]
